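Where inhibition never reached the appropriate level, the endpoint shown equals the highest concentration tested. Otherwise, values were interpolated linearly from a five-concentration, 48-hour dose response in 96-well plates. At the GI50, growth is halved.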 Activity calls are given as the source filed them. Cut-off read from the data, not from the text of the source: active = GI50 up to about 1.1 µM and inactive = higher.
Experiments:
Assay in all cases: DTP human tumour cell line panel, 48 h
SK-MEL-2 = tested on: SK-MEL-2
SK-MEL-28 = tested on: SK-MEL-28
OVCAR-8 = tested on: OVCAR-8
IGROV-1 = tested on: IGROV-1
UO-31 = tested on: UO-31
LOX IMVI = tested on: LOX IMVI
HOP-92 = tested on: HOP-92
NCI-H522 = tested on: NCI-H522
U-251 = tested on: U-251
SNB-19 = tested on: SNB-19
HCT-116 = tested on: HCT-116
SN12C = tested on: SN12C
Hs-578T = tested on: Hs-578T
OVCAR-4 = tested on: OVCAR-4
SK-OV-3 = tested on: SK-OV-3
UACC-62 = tested on: UACC-62
KM12 = tested on: KM12
A498 = tested on: A498
RPMI-8226 = tested on: RPMI-8226

Measured: GI50

CC1(C)CC(=O)C(=CNC(N)=S)C(=O)C1
inactive: SK-MEL-2 > 100 µM | SK-MEL-28 > 100 µM | OVCAR-8 > 100 µM | IGROV-1 > 100 µM | UO-31 > 100 µM | LOX IMVI > 100 µM | HOP-92 > 100 µM | NCI-H522 > 100 µM | U-251 > 100 µM | SNB-19 > 100 µM | HCT-116 > 100 µM | SN12C > 100 µM | Hs-578T > 100 µM | OVCAR-4 > 100 µM | SK-OV-3 > 100 µM | UACC-62 > 100 µM | KM12 > 100 µM

c1ccc2c(c1)ccc1nc(-c3ccc4c(c3)OCO4)c3c(c12)CCC3
inactive: SK-MEL-2 > 100 µM | SK-MEL-28 > 100 µM | OVCAR-8 56.4 µM | UO-31 78 µM | U-251 > 100 µM | SNB-19 > 100 µM | A498 > 100 µM | HCT-116 88.9 µM | SN12C > 100 µM | Hs-578T 55.8 µM | OVCAR-4 57.1 µM | SK-OV-3 > 100 µM | UACC-62 > 100 µM | RPMI-8226 37.1 µM | KM12 34 µM

COCOc1ccc(C(=O)Oc2cccc3c2OC(C)(C)O3)c(OCOC)c1
inactive: SK-MEL-28 9.66 µM | OVCAR-8 > 100 µM | IGROV-1 > 100 µM | UO-31 71.1 µM | LOX IMVI 35.7 µM | HOP-92 > 100 µM | U-251 27.9 µM | A498 > 100 µM | HCT-116 > 100 µM | SN12C > 100 µM | Hs-578T 31.3 µM | SK-OV-3 > 100 µM | UACC-62 28.2 µM | RPMI-8226 38.7 µM | KM12 11.9 µM

Cc1ccc(Oc2cc(C)ccc2P(=O)(O)O)cc1
inactive: SK-MEL-2 > 100 µM | SK-MEL-28 > 100 µM | OVCAR-8 > 100 µM | IGROV-1 > 100 µM | UO-31 > 100 µM | LOX IMVI > 100 µM | HOP-92 > 100 µM | NCI-H522 > 100 µM | SNB-19 > 100 µM | HCT-116 > 100 µM | SN12C > 100 µM | Hs-578T > 100 µM | SK-OV-3 > 100 µM | UACC-62 > 100 µM | RPMI-8226 > 100 µM | KM12 > 100 µM

CC(=O)CCn1c(=S)sc2ccccc21
inactive: SK-MEL-2 > 100 µM | SK-MEL-28 > 100 µM | OVCAR-8 > 100 µM | IGROV-1 98.6 µM | UO-31 41.3 µM | LOX IMVI > 100 µM | HOP-92 > 100 µM | NCI-H522 19.4 µM | U-251 > 100 µM | SNB-19 > 100 µM | HCT-116 > 100 µM | SN12C > 100 µM | Hs-578T > 100 µM | OVCAR-4 > 100 µM | SK-OV-3 86.9 µM | UACC-62 > 100 µM | KM12 > 100 µM

Source: ChEMBL document CHEMBL1201862, “PubChem BioAssay data set” (2004)
